{"source": "patent US9387231B2", "about": "“Compositions comprising a Brd4 antagonist and methods for the treatment of HIV” (THE CHILDREN'S HOSPITAL OF PHILADELPHIA, priority 2011, dated 2016)", "assay_type_in_all_cases": "cell-based", "key": {"[1]": {"tested_on": "Cdk9 binding to the HIV LTR", "test": "Chromatin immunoprecipitation (ChIP) of HIV LTR DNA, Cdk9", "settings": "CEMss LTR-GFP cells infected with HIV NL4-3, days 3 to 5, compared to JQ1(−), p<0.001", "protocol": "(§1) FIGS. 7A and 7B show the fold increase in the binding of IgG, RNA polymerase II, or Cdk9 to the HIV LTR in the presence of JQ1(+) or JQ1(−) for early (FIG. 7A) and late (FIG. 7B) HIV-1 transcript. ***p<0.001.\n(§2) To further investigate the mechanism of JQ1(+) reactivation of HIV transcription in latently infected T-cells, the binding of RNA polymerase II (PoI II) and p-TEFb (Cdk9/Cyclin T) to the promoter region of HIV LTR was measured using chromatin immunoprecipitation (ChIP). A CEMss reporter cell line stably transfected with GFP under the control of the HIV LTR promoter was used. CEMss LTR-GFP cells were infected with HIV NL4-3 in the presence of JQ1(+) or JQ1(−). At days 3 to 5 of infection, cells were collected and sheared, and formaldehyde cross-linked chromatin extracts were immunoprecipitated with antibodies specific for IgG, RNA polymerase II, or Cdk9. The abundance of HIV LTR DNA in immunoprecipitates was assessed by qPCR with two sets of primers specific for early or late regions of the HIV LTR."}, "HIV LTR": {"tested_on": "HIV LTR", "test": "Reactivation of the HIV LTR in latently infected J-Lat clones (GFP by flow cytometry)", "protocol": "GFP expression was measured by flow cytometry. FIGS. 3B and 3C shown the percentage of cells positive for GFP (FIG. 3B) and the mean MFI of GFP (FIG. 3C) in latently infected cell lines, J-Lat clones 82, A72, A7, A2, and A1, at 16 hours after TNFα or PHA was added in the cultures in the presence of JQ1(+) or JQ1(−). […] GFP expression in cells was measured by flow cytometry and is indicated as percent of GFP+ cells in gated live cell populations. An average of 5 experiments is shown. * p<0.05, ** p<0.01, *** p<0.001. […] Average of 3 experiments is shown. * p<0.05. For FIG. 3F, J-Lat A2 and A72 cells were reactivated with TNFα (20 ng/ml) or HIV Tat protein (50 μg/ml) in the presence of JQ1(+) or JQ1(−) for 16-18 hours, and GFP expression in cells was measured by flow cytometry. One representative experiment is shown. In each dot plot, non-underlined numbers indicate percentage of GFP+ cells and underlined numbers indicate mean fluorescence of GFP (MFI).\nNext, the effect of JQ1 on activation of the HIV LTR was tested using a latently infected Jurkat-derived cell clone, J-Lat clone A2. GFP expression in J-Lat clone A2 is induced upon reactivation with tumor necrosis factor-alpha (TNFα) or phytohaemagglutinin (PHA).\nTo further study the mechanism of how JQ1 drives reactivation of HIV latency, HIV latently infected T-cell lines—J-Lat clones A1, A2, A7, and A72—were utilized. The effect of JQ1(+) on reactivation of HIV latency in these cell lines were confirmed. TNFα (20 ng/ml) or PHA (1.5 μg/ml) was added to cultures of J-Lat clones in the presence of 1 μM JQ1(+) or JQ1(−). After 16 hours, expression of GFP was measured by flow cytometry. […] In the presence of HIV Tat, BET antagonism enhances Tat-driven transcription of the HIV LTR in J-Lat clones A2 and A72 (FIG. 3F; underlined numbers indicate mean GFP fluorescence, non-underlined numbers indicate percent of GFP+ cells). […] Displacement of Brd4 from chromatin by JQ1(+) may cause conformational change in the chromatin, exposing NF-κb binding sites, leading to increased HIV transcription and reactivation of latency."}, "[2]": {"tested_on": "HIV-1 NL43, SG3 or SG3deltaVif", "test": "Reactivation in latently infected primary resting CD4 T-cells (p24 ELISA)", "protocol": "A representative of three experiments is shown. […] AZT (100 μM) was added at day 1 after infection to prevent the spreading infection. The level of p24 in the media was measured by ELISA at day 3 (d3) and day 5 (d5) post-infection. The data shown are summarized for triplicate samples.\nFor FIG. 5A, primary resting CD4 T-cells were purified and spinoculated with HIV-1 NL43 or mock control. The infected cells were then cultured in the presence of 1 μM of JQ1(+) or JQ1(−). At day 3 after infection, IL-7 (20 ng/ml) was added in some of the cultures. Cells were counted and cell supernatants were collected at day 5 after infection. For FIG. 5B, primary CD4 T-cells were spinoculated with SG3 or SG3deltaVif and cultured in the presence of 1 μM of JQ1(+) or JQ1(−). AZT (100 μM) was added at day 1 after infection to prevent the spreading infection. IL7 (20 ng/ml) was added in some culture at day 3 after infection and the level of p24 in the media was measured by ELISA at day 3 and day 5 post-infection. The data shown are summarized with triplicates."}, "[3]": {"tested_on": "RNA polymerase II binding to the HIV LTR", "test": "Chromatin immunoprecipitation (ChIP) of HIV LTR DNA, RNA polymerase II", "settings": "CEMss LTR-GFP cells infected with HIV NL4-3, days 3 to 5, compared to JQ1(−), p<0.001", "protocol": "as §1, §2"}}, "note": "“Also recorded” adds a separate entry of the source.", "data": [{"smiles": "Cc1sc2c(c1C)C(c1ccc(Cl)cc1)=N[C@@H](CC(=O)OC(C)(C)C)c1nnc(C)n1-2", "note": "[JQ1(+), tert-butyl 2-((6S)-4-(4-chlorophenyl)-2,3,9-trimethyl-6H-thieno[3,2-f][1,2,4]triazolo[4,3-a][1,4]diazepin-6-yl)acetate]", "values": [{"measurement": "Binding of Cdk9 to the HIV LTR", "setting": "[1]", "result": "significantly increased"}, {"measurement": "GFP expression (% positive cells and mean fluorescence intensity)", "setting": "HIV LTR; J-Lat clone A2, with TNFα or PHA, 0.5 μM, 16 hours, versus JQ1(−) control", "result": "higher"}, {"measurement": "Tat-driven transcription of the HIV LTR (GFP)", "setting": "HIV LTR; J-Lat clones A2 and A72, HIV Tat protein 50 μg/ml, 16-18 hours", "result": "enhances"}, {"measurement": "GFP expression with TNFα", "setting": "HIV LTR; J-Lat clones A72 and A2, TNFα 20 ng/ml plus compound 1 μM", "result": "dramatically enhanced"}, {"measurement": "Percent of cells expressing GFP", "setting": "HIV LTR; J-Lat clones, compound alone, 1 μM, 16-18 hours", "result": "increased"}, {"measurement": "Reactivation of the HIV LTR (p24 per million cells)", "setting": "[2]; latently infected primary resting CD4 T-cells, NL43, 1 μM", "result": "drives the reactivation of the HIV LTR"}, {"measurement": "Reactivation of the HIV LTR (p24 in media)", "setting": "[2]; wild-type SG3 latently infected primary CD4 T-cells, 1 μM, AZT 100 μM", "result": "drives reactivation of the HIV LTR; also recorded: drives the reactivation of the HIV LTR"}, {"measurement": "Binding of RNA Pol II to the HIV LTR", "setting": "[3]", "result": "significantly increased"}]}]}
